Source: paper PMC6172315, “Relative Selectivity of Plant Cardenolides for Na^+/K^+-ATPases From the Monarch Butterfly and Non-resistant Insects” (Frontiers in Plant Science, 2018)
“Also recorded” adds a separate entry of the source. Like-named read-outs stand apart in the source and are kept apart here.

How the values were obtained:
[1] = set-up: method as in Imai et al., 1965; conditions: ref Imai et al., 1965; cited from earlier work
[2] = target: S. gregaria-Na^+/K^+-ATPase (Schistocerca gregaria, UniProt A0A8E5JSN5); format: biochemical
Protocol: (§1) Danaus plexippus was caught in the field or purchased; E. core and S. gregaria were obtained commercially, with additional E. core from a laboratory colony. […] Briefly, brains dissected from butterflies stored at -80°C or recta from locusts were homogenized (individually or pooled) with an all glass grinder (Wheaton) in deionized water, frozen at -80°C, freeze-dried, and stored frozen until use. For in vitro assays, lyophilisates were dissolved in water, sonicated in an ultrasonic bath, and centrifuged to remove undissolved matter. All cardiac glycosides were tested at least with three biological replicates of Na^+/K^+-ATPase (i.e., Na^+/K^+-ATPase from genetically different specimens or pools of specimens).
(§2) Means of duplicate determinations (i.e., technical replicates) were used as data points. In consequence, each data point of a dose–response curve is the mean of at least three biological replicates based on two technical replicates, each. […] Here, technical replicates collected on the same 96-well plate were averaged and used as data points.
(§3) Stock solutions of cardiac glycosides, as well as pregnane glycosides, were prepared from crystalline compounds in DMSO. While concentrations of all other compounds were based on mass, calactin, and calotropin stock solutions were adjusted with HPLC using digitoxin as a reference.
(§4) Pairwise statistical comparisons of dose-response curves were carried out using the “compare datasets” option in OriginPro, which is based on an F-Test evaluating if the two curves are identical. Correlation analyses using log10-transformed IC50 values was also carried out with OriginPro. […] To analyze relative selectivity without a reference, we also plotted the fold differences between the IC50 values of individual cardenolides for non-adapted and adapted insect Na^+/K^+-ATPase and compared them to mammalian (lamb) Na^+/K^+-ATPase (Figure 2).

[3] = target: D. plexippus-Na^+/K^+-ATPase (Danaus plexippus, UniProt K0G7C4); experiment: In vitro inhibition assay of D. plexippus Na+/K+-ATPase (phosphate release); format: biochemical; conditions: for inhibition of D. plexippus Na^+/K^+-ATPase compared to ouabain: DP, F-test comparison of entire dose-response curves with ouabain; for fold difference between IC50 values, non-adapted (E. core/S. gregaria) vs adapted (D. plexippus) insect Na^+/K^+-ATPase: Figure 2, last number, S. gregaria values used for ouabain and digitoxigenin; for IC50: read-out: IC50 D. plexippus- Na^+/K^+-ATPase, Na+/K+-ATPase extracted from butterfly brains
Protocol: as §1, §2, §3, §4

[4] = target: E. core-Na^+/K^+-ATPase (Euploea core, UniProt A0A5C0C9F5); experiment: In vitro inhibition assay of E. core Na+/K+-ATPase (phosphate release); format: biochemical; conditions: for inhibition of E. core Na^+/K^+-ATPase compared to ouabain: EC, F-test comparison of entire dose-response curves with ouabain; for IC50: read-out: IC50 E. core- Na^+/K^+-ATPase, Na+/K+-ATPase extracted from butterfly brains
Protocol: as §1, §2, §3, §4

[5] = system: porcine Na^+/K^+-ATPase; experiment: In vitro inhibition assay of porcine Na+/K+-ATPase; format: biochemical, pig; conditions: for inhibition of porcine Na^+/K^+-ATPase compared to ouabain: F-test comparison of dose-response curves with ouabain; for IC50: purified from pig brain, 0.01 U/ml in the assay
Protocol: Lyophilized Na^+/K^+-ATPase was dissolved in water to a concentration of 1 U/ml, stored at -80°C in single-use aliquots and diluted with H2O to 0.05 U/ml for use in the in vitro assay (final concentration in the assay 0.01 U/ml).
as §4

[6] = system: lamb Na^+/K^+-ATPase; experiment: Fold differences of IC50 between lamb and insect Na+/K+-ATPases; format: biochemical; conditions: lamb IC50 inferred from ref Paula et al., 2005; for fold difference between IC50 values, lamb vs adapted insect (D. plexippus) Na^+/K^+-ATPase: Figure 2, first number; for fold difference between IC50 values, lamb vs non-adapted insect (E. core/S. gregaria) Na^+/K^+-ATPase: Figure 2, second number
Protocol: as §4

[7] = physchem; conditions: for solubility: aqueous with cosolvent or surfactant or cyclodextrin, kinetic from dmso stock
Protocol: as §3

[8] = Na+/K+-ATPase extracted from locust recta; read-out: IC50 S. gregaria- Na^+/K^+-ATPase
[9] = SG; F-test comparison of entire dose-response curves with ouabain
[10] = read-out: IC50 S. gregaria- Na^+/K^+-ATPase; Na+/K+-ATPase extracted from locust recta
[11] = both dissolved in 25% DMSO, F-test of curves

S. gregaria-Na^+/K^+-ATPase, sequence (A0A8E5JSN5 1-1039): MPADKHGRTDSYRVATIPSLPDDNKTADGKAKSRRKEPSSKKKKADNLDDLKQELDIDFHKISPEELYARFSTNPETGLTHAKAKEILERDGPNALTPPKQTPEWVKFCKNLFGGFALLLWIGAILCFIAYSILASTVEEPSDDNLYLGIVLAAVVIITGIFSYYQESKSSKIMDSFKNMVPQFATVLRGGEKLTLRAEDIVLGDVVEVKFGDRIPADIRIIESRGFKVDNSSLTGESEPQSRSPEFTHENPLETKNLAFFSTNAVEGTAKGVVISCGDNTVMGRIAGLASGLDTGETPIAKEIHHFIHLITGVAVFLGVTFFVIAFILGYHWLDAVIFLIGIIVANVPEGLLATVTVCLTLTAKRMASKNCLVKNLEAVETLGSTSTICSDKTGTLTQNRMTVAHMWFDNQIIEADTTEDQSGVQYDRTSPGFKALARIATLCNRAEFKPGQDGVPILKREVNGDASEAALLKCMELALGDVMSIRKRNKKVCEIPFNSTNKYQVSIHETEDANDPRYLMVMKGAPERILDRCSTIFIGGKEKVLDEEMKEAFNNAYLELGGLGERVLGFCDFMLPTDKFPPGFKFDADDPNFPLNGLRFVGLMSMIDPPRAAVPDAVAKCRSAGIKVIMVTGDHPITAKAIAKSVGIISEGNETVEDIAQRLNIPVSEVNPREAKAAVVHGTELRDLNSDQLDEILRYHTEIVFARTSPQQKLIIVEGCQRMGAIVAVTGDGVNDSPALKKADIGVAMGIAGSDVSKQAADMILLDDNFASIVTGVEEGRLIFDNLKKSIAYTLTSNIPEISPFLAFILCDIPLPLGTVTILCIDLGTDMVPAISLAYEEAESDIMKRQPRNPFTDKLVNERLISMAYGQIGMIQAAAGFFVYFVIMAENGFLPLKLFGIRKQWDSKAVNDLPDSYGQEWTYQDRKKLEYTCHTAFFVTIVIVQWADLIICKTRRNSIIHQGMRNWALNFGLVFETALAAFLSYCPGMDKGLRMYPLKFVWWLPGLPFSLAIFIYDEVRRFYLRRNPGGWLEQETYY
D. plexippus-Na^+/K^+-ATPase, sequence (K0G7C4 1-1009): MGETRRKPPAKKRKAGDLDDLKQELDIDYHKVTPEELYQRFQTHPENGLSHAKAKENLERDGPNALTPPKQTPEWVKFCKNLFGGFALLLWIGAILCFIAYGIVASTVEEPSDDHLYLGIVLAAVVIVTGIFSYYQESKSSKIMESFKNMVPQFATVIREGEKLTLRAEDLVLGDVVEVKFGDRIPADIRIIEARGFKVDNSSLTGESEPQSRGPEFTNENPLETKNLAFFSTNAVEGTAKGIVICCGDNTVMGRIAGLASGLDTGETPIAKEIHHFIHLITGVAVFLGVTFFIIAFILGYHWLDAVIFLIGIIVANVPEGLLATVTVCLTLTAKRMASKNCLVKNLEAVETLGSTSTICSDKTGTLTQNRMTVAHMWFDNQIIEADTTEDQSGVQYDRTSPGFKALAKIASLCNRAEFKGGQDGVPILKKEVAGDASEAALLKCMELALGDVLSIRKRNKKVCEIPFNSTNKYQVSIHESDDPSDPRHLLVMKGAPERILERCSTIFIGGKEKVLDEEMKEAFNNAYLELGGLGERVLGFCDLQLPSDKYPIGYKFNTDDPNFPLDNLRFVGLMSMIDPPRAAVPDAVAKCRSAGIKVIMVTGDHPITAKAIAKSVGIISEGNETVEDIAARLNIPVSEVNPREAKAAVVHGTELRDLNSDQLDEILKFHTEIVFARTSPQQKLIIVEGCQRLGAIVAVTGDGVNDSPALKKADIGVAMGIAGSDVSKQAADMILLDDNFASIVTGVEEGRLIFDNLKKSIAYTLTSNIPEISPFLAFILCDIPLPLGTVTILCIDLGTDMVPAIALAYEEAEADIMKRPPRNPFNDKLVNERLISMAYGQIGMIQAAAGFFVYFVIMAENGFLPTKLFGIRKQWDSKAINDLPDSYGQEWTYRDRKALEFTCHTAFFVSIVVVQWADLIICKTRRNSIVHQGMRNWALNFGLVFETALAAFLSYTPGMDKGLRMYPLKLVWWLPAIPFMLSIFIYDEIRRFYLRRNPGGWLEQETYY
E. core-Na^+/K^+-ATPase, sequence (A0A5C0C9F5 1-1013): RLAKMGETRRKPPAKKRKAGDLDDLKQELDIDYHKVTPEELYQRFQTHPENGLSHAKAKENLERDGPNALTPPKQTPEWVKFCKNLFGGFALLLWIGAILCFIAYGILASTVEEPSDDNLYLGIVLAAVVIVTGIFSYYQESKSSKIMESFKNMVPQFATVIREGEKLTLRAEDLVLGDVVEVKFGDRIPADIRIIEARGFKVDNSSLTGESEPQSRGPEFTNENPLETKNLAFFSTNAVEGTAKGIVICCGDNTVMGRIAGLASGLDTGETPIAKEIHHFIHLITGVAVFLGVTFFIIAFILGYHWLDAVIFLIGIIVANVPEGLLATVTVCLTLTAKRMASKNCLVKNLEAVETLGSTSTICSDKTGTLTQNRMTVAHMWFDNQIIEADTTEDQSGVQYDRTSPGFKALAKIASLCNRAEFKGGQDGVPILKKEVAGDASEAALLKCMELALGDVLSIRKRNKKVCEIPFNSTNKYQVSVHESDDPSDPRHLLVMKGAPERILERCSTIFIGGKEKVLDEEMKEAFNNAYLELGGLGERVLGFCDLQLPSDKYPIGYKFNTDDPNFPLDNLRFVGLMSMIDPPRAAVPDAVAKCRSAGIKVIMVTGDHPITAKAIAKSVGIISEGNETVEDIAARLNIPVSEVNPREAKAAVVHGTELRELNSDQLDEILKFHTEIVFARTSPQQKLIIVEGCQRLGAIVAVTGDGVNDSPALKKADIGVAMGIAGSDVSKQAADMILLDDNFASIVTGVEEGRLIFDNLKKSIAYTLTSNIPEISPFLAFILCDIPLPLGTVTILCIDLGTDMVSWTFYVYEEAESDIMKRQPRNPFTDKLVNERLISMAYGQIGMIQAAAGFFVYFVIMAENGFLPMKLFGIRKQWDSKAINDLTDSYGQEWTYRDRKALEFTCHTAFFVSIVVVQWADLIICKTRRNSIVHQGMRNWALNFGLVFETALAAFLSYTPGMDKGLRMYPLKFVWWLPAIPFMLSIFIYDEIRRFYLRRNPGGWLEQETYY

Structure (SMILES) | inhibition of D. plexippus Na^+/K^+-ATPase compared to ouabain [3] | fold difference between IC50 values, non-adapted (E. core/S. gregaria) vs adapted (D. plexippus) insect Na^+/K^+-ATPase [3] [x] | IC50 [3] [µM] | inhibition of E. core Na^+/K^+-ATPase compared to ouabain [4] | IC50 [4] [µM] | IC50 [5] [µM] | IC50 [2, 8] [µM] | inhibition of S. gregaria Na^+/K^+-ATPase compared to ouabain [2, 9] | fold difference between IC50 values, lamb vs adapted insect (D. plexippus) Na^+/K^+-ATPase [6] [x] | fold difference between IC50 values, lamb vs non-adapted insect (E. core/S. gregaria) Na^+/K^+-ATPase [6] [x] | further results
CO[C@@H]1C[C@H](O[C@H]2CC[C@@]3(C)[C@H](CC[C@@]45O[C@@]46CC[C@H](C4=CC(=O)OC4)[C@@]6(C)CC[C@H]35)C2)O[C@H](C)[C@@H]1O [adynerin] |  |  |  |  |  |  |  |  |  |  | cardiotonic activity in vertebrates [1]: lack cardiotonic activity; inhibition of S. gregaria-Na^+/K^+-ATPase (in words) ([2]; Supplementary Figure 2): lack of inhibition; also recorded: failed to inhibit
C[C@]12CC[C@H](O[C@@H]3O[C@H](CO)[C@@H](O)[C@H](O)[C@H]3O)C[C@@H]1CC[C@@H]1[C@@H]2CC[C@]2(C)[C@@H](C3=CC(=O)OC3)CC[C@]12O [desglucouzarin] | strongly inhibitory effect; also recorded: > ouabain; F2,7 = 455.90, p < 0.001 | 10 | 6.42 | nearly the same inhibitory effect as ouabain | 0.62 | 0.268 |  |  |  |  | inhibition of porcine Na^+/K^+-ATPase compared to ouabain [5]: more strongly than ouabain
C[C@]12CC[C@H](O)C[C@H]1CC[C@@H]1[C@@H]2CC[C@]2(C)[C@@H](C3=CC(=O)OC3)[C@@H](O)C[C@]12O [gitoxigenin] |  | 7 | 256 |  |  |  | 37.8 | much lower extent compared to ouabain | 1633 | 241 | 
CC(=O)O[C@H]1C[C@H](O[C@H]2[C@@H](O)C[C@H](O[C@H]3[C@@H](O)C[C@H](O[C@H]4CC[C@@]5(C)[C@H](CC[C@@H]6[C@@H]5C[C@@H](O)[C@]5(C)[C@@H](C7=CC(=O)OC7)CC[C@]65O)C4)O[C@@H]3C)O[C@@H]2C)O[C@H](C)[C@H]1O[C@@H]1O[C@H](CO)[C@@H](O)[C@H](O)[C@H]1O [lanatoside C, reference compound] | < ouabain; F2,6 = 17.23, p = 0.003 | 52 | 644 |  |  |  | 12.4 | < ouabain; F2,6 = 82.96, p < 0.001 | 1564 | 30 | 
CO[C@H]1C[C@H](O[C@H]2CC[C@@]3(C)[C@H](CC[C@@H]4[C@@H]3CC[C@]3(C)[C@@H](C5=CC(=O)OC5)[C@@H](OC(C)=O)C[C@]43O)C2)O[C@@H](C)[C@@H]1O [oleandrin] | > ouabain; F2,6 = 252.64, p < 0.001 |  | 3.68 |  |  |  |  | = ouabain; F2,6 = 2.24, p = 0.19 |  |  | solubility [7]: < 100 µM; IC50 [2, 10]: 0.834 µM
CC12CC(O)C3C(CCC4(O)CC(O)CC(O)C34CO)C1(O)CCC2C1=CC(=O)OC1 (centres unmarked) [ouabagenin] | < ouabain; F2,6 = 80.0, p < 0.001 | 41 | 841 |  |  |  | 20.4 | < ouabain; F2,6 = 201.2, p < 0.001 | 1821 | 44 | 
C[C@@H]1O[C@@H](O[C@H]2C[C@@H](O)[C@]3(CO)[C@H]4[C@H](O)C[C@]5(C)[C@@H](C6=CC(=O)OC6)CC[C@]5(O)[C@@H]4CC[C@]3(O)C2)[C@H](O)[C@H](O)[C@H]1O [ouabain, reference compound] |  |  | 94 |  | 1.03 | 0.486 |  |  |  |  | IC50 [2, 10]: 0.997 µM
CC12CCC(O)CC1CCC1C2CCC2(C)C(C3=CC(=O)OC3)CCC12O (centres unmarked) [uzarigenin] | > ouabain; F2,6 = 5.73, p = 0.04 |  | 16 | < ouabain; F2,6 = 53.30, p < 0.001 | 4.58 |  |  |  |  |  | solubility compared to 5-β-isomer digitoxigenin ([7]; ambient conditions): at least three to four times lower; also recorded: strongly reduced; solubility [7]: < 100 µM; inhibition of D. plexippus Na^+/K^+-ATPase compared to 5β equivalent digitoxigenin [3, 11]: no difference; inhibition of E. core Na^+/K^+-ATPase compared to 5β equivalent digitoxigenin [4, 11]: no difference
C[C@]12CC[C@H](O[C@@H]3O[C@H](CO[C@@H]4O[C@H](CO)[C@@H](O)[C@H](O)[C@H]4O)[C@@H](O)[C@H](O)[C@H]3O)C[C@@H]1CC[C@@H]1[C@@H]2CC[C@]2(C)[C@@H](C3=CC(=O)OC3)CC[C@]12O [uzarin] | substantially stronger inhibition than ouabain; also recorded: > ouabain; F2,7 = 70.04, p < 0.001 | 6 | 18.8 | far weaker inhibition than ouabain; also recorded: < ouabain; F2,7 = 39.97, p < 0.001 | 2.91 | 0.452 |  |  |  |  | inhibition of porcine Na^+/K^+-ATPase compared to ouabain [5]: not different from the effect of ouabain
